# Strand notation (5' to 3'): a small letter for the sugar, then the base; units joined by * are phosphorothioate-linked, units joined directly phosphodiester-linked; [ ] holds rarer units or linkages, { } end groups; capitals alone tell only the bases. k = constrained ethyl (cEt); [5mC] = 5-methylcytosine; d = 2'-deoxy (DNA)
# How the values were obtained:
# Yap1 mRNA [1] = assay: Yap1 mRNA in SNU-1066 cells, RNA analysis (Example 44); format: cell-based, human; settings: free uptake, approximately 48 hours
# Experimental: Modified oligonucleotides described in the studies above were tested at various doses in laryngeal squamous cell carcinoma line SNU-1066. A control oligonucleotide 792169, described herein above, was also tested.
# (§1) Cultured SNU-1066 cells at a density of 5000 cells per well were treated using free uptake with modified oligonucleotides diluted to concentrations described in the tables below. After approximately 48 hours, Yap1 mRNA levels were measured as previously described using the Human Yap1 primer-probe set RTS4814. Yap1 mRNA levels were normalized to actin-beta content, as measured by primer probe set RTS5002. Results are presented in the tables below as percent control of the amount of Yap1 mRNA relative to untreated control cells (% UTC).
# Yap1 mRNA [2] = assay: Yap1 mRNA in CAL33 cells, RNA analysis (Example 36); format: cell-based, human; settings: free uptake, approximately 48 hours
# Experimental: Modified oligonucleotides described in the studies above were tested at various doses in tongue squamous cell carcinoma line CAL33. A control oligonucleotide 792169, described herein above, was also tested.
# as §1, with “CAL33” for “SNU-1066”
# Yap1 mRNA [3] = assay: Yap1 mRNA in CAL27 cells, RNA analysis (Example 37); format: cell-based, human; settings: free uptake, approximately 48 hours
# Experimental: (§2) Modified oligonucleotides described in the studies above were tested at various doses in tongue squamous cell carcinoma line CAL27. A control oligonucleotide 792169, described herein above, was also tested.
# as §1, with “CAL27” for “SNU-1066”
# BICR56 cells = assay: Cell proliferation assay in BICR56 cells, CellTiter-Glo (Example 33); format: cell-based, human; settings: free uptake, approximately 144 hours
# Experimental: Modified oligonucleotides described in the studies above were tested at various doses in squamous cell carcinoma adherent keratinocyte cell line BICR56. A control oligonucleotide 792169 was also tested.
# (§3) Cultured BICR56 cells at a density of 1000 cells/well were treated using free uptake with modified oligonucleotides diluted to concentrations described in the tables below. After approximately 144 hours, cell proliferation was measured using the luminescent cell viability CellTiter-Glo® 2.0 Assay (Promega). Results are presented in the tables below as percent control of the amount of luminescence in samples treated with modified oligonucleotides relative to untreated control cells (% UTC).
# Yap1 mRNA [4] = assay: Yap1 mRNA in Detroit-562 cells, RNA analysis (Example 38); format: cell-based, human; settings: free uptake, approximately 48 hours
# Experimental: Modified oligonucleotides described in the studies above were tested at various doses in pharynx carcinoma cell line Detroit-562. A control oligonucleotide 792169, described herein above, was also tested.
# as §1, with “Detroit-562” for “SNU-1066”
# Yap1 mRNA [5] = assay: Yap1 mRNA in SCC-15 cells, RNA analysis (Example 41); format: cell-based, human; settings: free uptake, approximately 48 hours
# Experimental: Modified oligonucleotides described in the studies above were tested at various doses in tongue squamous cell carcinoma cell line SCC-15. A control oligonucleotide 792169, described herein above, was also tested.
# as §1, with “SCC-15” for “SNU-1066”
# CAL27 cells = assay: Cell proliferation assay in CAL27 cells, CellTiter-Glo (Example 37); format: cell-based, human; settings: free uptake, approximately 144 hours
# Experimental: as §2
# as §3, with “CAL27” for “BICR56”
# [6] = Cynomolgus monkey tolerability, urine analysis (Example 34); settings: cynomolgus monkeys, 35 mg/kg subcutaneously, day 44
# Experimental: Prior to the study, the monkeys were kept in quarantine during which the animals were observed daily for general health. The monkeys were 2-4 years old and weighed 2-4 kg. Eleven groups of 4 randomly assigned male cynomolgus monkeys each were injected subcutaneously with Ionis oligonucleotide or saline in a clock-wise rotation between four different sites on the back. Following loading doses on days 1, 3, 5 and 7, the monkeys were dosed once per week (on days 14, 21, 28, 35, and 42) with 35 mg/kg of Ionis oligonucleotide.
# Food was removed overnight the day before fresh urine collection, but water was supplied. Fresh urine samples for urinalysis and urine chemistry were collected from all animals using a clean cage pan on wet ice (first in the morning) on day 44. Urinalysis/Urine Chemistry parameters creatinine (UCRE), microprotein (UTP), urine microalbumin (UALB), and protein/creatinine (P/C) ratio were measured using a Toshiba 120FR automated chemistry analyzer (Toshiba Co., Japan).
# [7] = Tolerability in CD-1 mice, body and organ weights (Example 19); format: in vivo; settings: male CD-1 mice, 50 mg/kg s.c. twice a week for four weeks (8 treatments), end of study (day 26)
# Experimental: Groups of four male CD-1 mice at 4-6 weeks of age (obtained from Charles River) were injected subcutaneously twice a week for four weeks (for a total of 8 treatments) with 50 mg/kg of modified oligonucleotides. One group of male CD-1 mice was injected with PBS. Mice were euthanized on day 26 post start of treatment (24 hrs following the final administration).
# Body weights of CD-1 mice were measured at the end of the study, and the average body weight for each group is presented in the table below. Modified oligonucleotides that caused any changes in organ weights outside the expected range for modified oligonucleotides were excluded from further studies.
substance,measurement,setting,value
715487 (kA*kT*kT*dA*d[5mC]*dT*dT*d[5mC]*dA*dT*dA*dG*d[5mC]*kT*kT*kA) [compound 715487],human Yap1 mRNA expression,Yap1 mRNA [1]; 0.04 μM,77 % UTC
same,human Yap1 mRNA expression,Yap1 mRNA [1]; 0.2 μM,49 % UTC
same,human Yap1 mRNA expression,Yap1 mRNA [1]; 1 μM,22 % UTC
same,human Yap1 mRNA expression,Yap1 mRNA [1]; 5 μM,7 % UTC
same,human Yap1 mRNA expression,Yap1 mRNA [2]; 0.04 μM,81 % UTC
same,human Yap1 mRNA expression,Yap1 mRNA [2]; 0.2 μM,41 % UTC
same,human Yap1 mRNA expression,Yap1 mRNA [2]; 1 μM,12 % UTC
same,human Yap1 mRNA expression,Yap1 mRNA [2]; 5 μM,6 % UTC
same,human Yap1 mRNA expression,Yap1 mRNA [3]; 0.08 μM,35 % UTC
same,human Yap1 mRNA expression,Yap1 mRNA [3]; 0.4 μM,23 % UTC
same,human Yap1 mRNA expression,Yap1 mRNA [3]; 2 μM,5 % UTC
same,human Yap1 mRNA expression,Yap1 mRNA [3]; 10 μM,3 % UTC
same,"Antiproliferative effect (cell proliferation, luminescence)",BICR56 cells; 0.04 μM,70 % UTC
same,"Antiproliferative effect (cell proliferation, luminescence)",BICR56 cells; 0.2 μM,26 % UTC
same,"Antiproliferative effect (cell proliferation, luminescence)",BICR56 cells; 1 μM,9 % UTC
same,"Antiproliferative effect (cell proliferation, luminescence)",BICR56 cells; 5 μM,4 % UTC
same,human Yap1 mRNA expression,Yap1 mRNA [4]; 0.04 μM,77 % UTC
same,human Yap1 mRNA expression,Yap1 mRNA [4]; 0.2 μM,29 % UTC
same,human Yap1 mRNA expression,Yap1 mRNA [4]; 1 μM,10 % UTC
same,human Yap1 mRNA expression,Yap1 mRNA [4]; 5 μM,5 % UTC
same,human Yap1 mRNA expression,Yap1 mRNA [5]; 0.04 μM,69 % UTC
same,human Yap1 mRNA expression,Yap1 mRNA [5]; 0.2 μM,33 % UTC
same,human Yap1 mRNA expression,Yap1 mRNA [5]; 1 μM,12 % UTC
same,human Yap1 mRNA expression,Yap1 mRNA [5]; 5 μM,5 % UTC
same,"Antiproliferative effect (cell proliferation, luminescence)",CAL27 cells; 0.08 μM,95 % UTC
same,"Antiproliferative effect (cell proliferation, luminescence)",CAL27 cells; 0.4 μM,85 % UTC
same,"Antiproliferative effect (cell proliferation, luminescence)",CAL27 cells; 2 μM,67 % UTC
same,"Antiproliferative effect (cell proliferation, luminescence)",CAL27 cells; 10 μM,33 % UTC
"1076453 (GTAATATTGCAATCTG; 3-10-3 cEt gapmer, further chemistry not given here) [compound 1076453]",UALB,[6],0.1 mg/dL
same,UCRE,[6],50 mg/dL
same,UTP,[6],14 mg/dL
"958499 (ATTAGAGTATGTGGCA; 3-10-3 cEt gapmer, further chemistry not given here) [compound 958499]",UALB,[6],0.1 mg/dL
same,UCRE,[6],60 mg/dL
same,UTP,[6],16 mg/dL
"1198728 (TATTAGAGTATGTGGC; modified gapmer, further chemistry not given here) [compound 1198728]",UALB,[6],0.3 mg/dL
same,UCRE,[6],70 mg/dL
same,UTP,[6],16 mg/dL
"1198831 (CACTTTTACATTAGGA; chemically modified gapmer, further chemistry not given here) [compound 1198831]",UALB,[6],0.1 mg/dL
same,UCRE,[6],46 mg/dL
same,UTP,[6],13 mg/dL
"1198623 (CTAAGTAAGGTTTCCC; modified gapmer, further chemistry not given here) [compound 1198623]",UALB,[6],0.2 mg/dL
same,UCRE,[6],44 mg/dL
same,UTP,[6],10 mg/dL
"1198439 (AGTGTATGTCAGAAGA; sugar, 5-methylcytosine, phosphorothioate modifications, further chemistry not given here) [compound 1198439]",UALB,[6],0.1 mg/dL
same,UCRE,[6],68 mg/dL
same,UTP,[6],15 mg/dL
same,Kidney weight,[7],0.51 g
same,Liver weight,[7],2.03 g
same,Spleen weight,[7],0.25 g
same,body weight,[7],36 g
"CGCCGATAAGGTACAC (cEt gapmer, phosphorothioate backbone, further chemistry not given here) [ION 792169, reference compound]",human Yap1 mRNA expression,Yap1 mRNA [1]; 0.04 μM,91 % UTC
same,human Yap1 mRNA expression,Yap1 mRNA [1]; 0.2 μM,94 % UTC
same,human Yap1 mRNA expression,Yap1 mRNA [1]; 1 μM,93 % UTC
same,human Yap1 mRNA expression,Yap1 mRNA [1]; 5 μM,98 % UTC
same,human Yap1 mRNA expression,Yap1 mRNA [2]; 0.04 μM,106 % UTC
same,human Yap1 mRNA expression,Yap1 mRNA [2]; 0.2 μM,106 % UTC
same,human Yap1 mRNA expression,Yap1 mRNA [2]; 1 μM,91 % UTC
same,human Yap1 mRNA expression,Yap1 mRNA [2]; 5 μM,85 % UTC
same,human Yap1 mRNA expression,Yap1 mRNA [3]; 0.08 μM,95 % UTC
same,human Yap1 mRNA expression,Yap1 mRNA [3]; 0.4 μM,90 % UTC
same,human Yap1 mRNA expression,Yap1 mRNA [3]; 2 μM,97 % UTC
same,human Yap1 mRNA expression,Yap1 mRNA [3]; 10 μM,88 % UTC
same,"Antiproliferative effect (cell proliferation, luminescence)",BICR56 cells; 0.04 μM,106 % UTC
same,"Antiproliferative effect (cell proliferation, luminescence)",BICR56 cells; 0.2 μM,100 % UTC
same,"Antiproliferative effect (cell proliferation, luminescence)",BICR56 cells; 1 μM,92 % UTC
same,"Antiproliferative effect (cell proliferation, luminescence)",BICR56 cells; 5 μM,87 % UTC
same,human Yap1 mRNA expression,Yap1 mRNA [4]; 0.04 μM,102 % UTC
same,human Yap1 mRNA expression,Yap1 mRNA [4]; 0.2 μM,102 % UTC
same,human Yap1 mRNA expression,Yap1 mRNA [4]; 1 μM,94 % UTC
same,human Yap1 mRNA expression,Yap1 mRNA [4]; 5 μM,99 % UTC
same,human Yap1 mRNA expression,Yap1 mRNA [5]; 0.04 μM,91 % UTC
same,human Yap1 mRNA expression,Yap1 mRNA [5]; 0.2 μM,100 % UTC
same,human Yap1 mRNA expression,Yap1 mRNA [5]; 1 μM,102 % UTC
same,human Yap1 mRNA expression,Yap1 mRNA [5]; 5 μM,105 % UTC
same,"Antiproliferative effect (cell proliferation, luminescence)",CAL27 cells; 0.08 μM,96 % UTC
same,"Antiproliferative effect (cell proliferation, luminescence)",CAL27 cells; 0.4 μM,102 % UTC
same,"Antiproliferative effect (cell proliferation, luminescence)",CAL27 cells; 2 μM,103 % UTC
same,"Antiproliferative effect (cell proliferation, luminescence)",CAL27 cells; 10 μM,90 % UTC
"1198872 (TGTATGTCAGAAGAGT; chemically modified gapmer, further chemistry not given here) [compound 1198872]",UALB,[6],0.3 mg/dL
same,UCRE,[6],111 mg/dL
same,UTP,[6],14 mg/dL
same,Kidney weight,[7],0.40 g
same,Liver weight,[7],1.84 g
same,Spleen weight,[7],0.16 g
same,body weight,[7],34 g
"1197270 (TTAAAGTGTATGTCAG; cEt gapmer with 2'-OMe nucleoside, phosphorothioate, further chemistry not given here) [compound 1197270]",UALB,[6],1.3 mg/dL
same,UCRE,[6],56 mg/dL
same,UTP,[6],18 mg/dL
"1198605 (GTAATATTGCAATCTG; modified gapmer, further chemistry not given here) [compound 1198605]",UALB,[6],0.4 mg/dL
same,UCRE,[6],69 mg/dL
same,UTP,[6],12 mg/dL

# From patent publication US11214803B2, “Modulators of YAP1 expression” (Ionis Pharmaceuticals, Inc., priority 2019, dated 2022)
